Literature values as cited in patent US20230027198A1 (The Rockefeller University, priority 2019, published 2023).

Legend:
tumor = conditions: preclinical studies in mice; cited from earlier work
[1] = system: myeloma tumors; leukemic engraftment of patient-derived primary samples; conditions: mice, cited from earlier work
[2] = system: BET family of bromodomain proteins; conditions: cited from earlier work

**Q.** With `CCn1nc(C2CC2)cc1Nc1nc(C(=O)NCCCOCCOCCOCCCNc2cccc3c2C(=O)N(C2CCC(=O)NC2=O)C3=O)nc2[nH]c3cc(-c4c(C)noc4C)c(OC)cc3c12` (stereo not shown) [BET-d246] as the molecule, how does the anti-tumor activity (tumor) read?
**A.** The anti-tumor activity was “strong anti-tumor activity”.

**Q.** What does the source list for `COc1cc2c(cc1-c1c(C)noc1C)ncc1[nH]c(=O)n([C@H](C)c3ccccn3)c12` [I-BET 151]?
**A.** leukemic engraftment and disease burden ([1]; in vivo, patient-derived primary samples): impairs the leukemic engraftment of patient-derived primary samples and lowers the disease burden; effect on myeloma tumors [1]: reduced myeloma tumors

**Q.** Which “inhibition of BET bromodomain proteins” value [2] does the source give for `Cc1sc2c(c1C)C(c1ccc(Cl)cc1)=N[C@@H](CC(=O)OC(C)(C)C)c1nnc(C)n1-2` [JQ1] here?
**A.** Its value is “potent inhibitor”.
